Results reported in the NIST ThermoML archive (doi:10.1016/j.jct.2017.08.035).

Experiment: wn = mass fraction of the nth substance listed
Conditions: for surface tension liquid-gas: Maximal bubble pressure; for mass density: 100 kPa, Liquid, Vibrating tube method

CCn1cc[n+](CCOC)c1.N#C[S-] [1-ethyl-3-(2-methoxyethyl)imidazolium thiocyanate] + O
Conditions | mass density, w2 = 0.00246 [kg/m3] | mass density, w2 = 0.00426 [kg/m3] | mass density, w2 = 0.00608 [kg/m3] | mass density, w2 = 0.00832 [kg/m3] | mass density, w2 = 0.00975 [kg/m3] | surface tension liquid-gas, w2 = 0.00382 [mN/m] | surface tension liquid-gas, w2 = 0.00528 [mN/m] | surface tension liquid-gas, w2 = 0.00668 [mN/m] | surface tension liquid-gas, w2 = 0.00811 [mN/m] | surface tension liquid-gas, w2 = 0.00956 [mN/m]
298.15 K | 1121.78 | 1121.54 | 1121.29 | 1120.96 | 1120.82 | 49.3 | 49.4 | 49.5 | 49.6 | 49.7
303.15 K | 1118.56 | 1118.32 | 1118.08 | 1117.75 | 1117.6 | 49 | 49.1 | 49.2 | 49.3 | 49.4
308.15 K | 1115.36 | 1115.12 | 1114.88 | 1114.54 | 1114.4 | 48.7 | 48.8 | 48.9 | 49 | 49.1
313.15 K | 1112.18 | 1111.94 | 1111.7 | 1111.35 | 1111.21 | 48.4 | 48.5 | 48.6 | 48.8 | 48.9
318.15 K | 1109.03 | 1108.77 | 1108.54 | 1108.18 | 1108.03 | 48.1 | 48.2 | 48.3 | 48.5 | 48.6
323.15 K | 1105.88 | 1105.63 | 1105.39 | 1105.02 | 1104.87 | 47.8 | 47.9 | 48 | 48.1 | 48.2
328.15 K | 1102.76 | 1102.5 | 1102.25 | 1101.87 | 1101.72 | 47.6 | 47.7 | 47.8 | 47.9 | 48
333.15 K | 1099.65 | 1099.38 | 1099.13 | 1098.74 | 1098.59 | 47.4 | 47.5 | 47.6 | 47.7 | 47.8
338.15 K | 1096.55 | 1096.28 | 1096.02 | 1095.62 | 1095.47 | 47.1 | 47.2 | 47.3 | 47.5 | 47.6
